Assay results taken from US5304551A, “Anti-fungal compounds” (British Technology Group Limited, priority 1990, dated 1994).
In brackets after ≈: the same amount, converted by molar mass.

How the values were obtained:
Type in all cases: cell-based
[1] = test system: Microsporum audounii NCPF 638; test: Antifungal activity, agar plate disc zone of inhibition, approximate MIC, Microsporum audounii; conditions: for MIC: Microsporum, NCPF638, M. audounii, approximate MIC, compound in dimethyl sulphoxide, 13 mm discs on nutrient agar, 24h and 48h incubation; for activity against the ringworm organism (in words): athlete's foot and ringworm organisms
Description: (§1) Candida albicans NCYC 597; Trichophyton mentagrophytes NCPF 224 and Microsporum audounii NCPF 638 were used throughout as test organisms. These are open deposits at the National Collection of Yeast Cultures, Norwich UK and the National Collection of Pathogenic Fungi of the Commonwealth Mycological Institute, Kew UK.
(§2) All organisms were maintained in a nutrient broth containing (gl^-1): Lab Lemco (Oxoid), 5; Peptone (Oxoid), 5; NaCl, 10. Cultures for testing antimicrobial activity were grown in this medium for 18h prior to use. Solidified media were prepared by the addition of Agar (Oxoid No. 3) 1.5% w/v.
(§3) Antifungal activity was estimated using solutions of the compound (as the free acid) in dimethyl sulphoxide. A range of concentrations was used for each compound to permit calculation of an approximate MIC. 13 mm discs (Whatman) were soaked in a solution of the appropriate dilution, either allowed to dry, or placed directly onto the surface of nutrient agar plates seeded with the required test organism.
(§4) After 24h incubation the diameters of zones of inhibition were measured. After a further 24h incubation, the plates were re-examined and zones re-measured.

[2] = test system: Trichophyton mentagrophytes NCPF 224; test: Antifungal activity, agar plate disc zone of inhibition, approximate MIC, Trichophyton mentagrophytes; conditions: for MIC: Trichophyton mentagrophytes, NCPF224, approximate MIC, compound in dimethyl sulphoxide, 13 mm discs on nutrient agar, 24h and 48h incubation, read-out: MICs, T. ment.; for activity against the athlete's foot organism (in words): athlete's foot and ringworm organisms
Description: as §1, §2, §3, §4

[3] = test system: Candida albicans NCYC 597; test: Antifungal activity, agar plate disc zone of inhibition, approximate MIC, Candida albicans; conditions: NCYC597, C. albicans, compound in dimethyl sulphoxide, 13 mm discs on nutrient agar, 24h and 48h incubation, read-out: MICs, C. albicans
Description: as §1, §2, §3, §4

Row | SMILES | MIC [1] [µg/mL] | MIC ([2]; T. mentagrophytes) [µg/mL] | MIC [3] [µg/mL] | activity against the ringworm organism (in words) [1] | activity against the athlete's foot organism (in words) [2] | MICs, T. ment. (result in words) ([2]; T. mentagrophytes, no MIC / no activity)
1 | C[C@H](CCCCO)[C@H]1CC[C@H]2[C@@H]3[C@H](O)C[C@@H]4C[C@H](O)CC[C@]4(C)[C@H]3C[C@H](O)[C@]12C [cholic, Z = CH2 OH, 3α,7α,12α,25-tetrahydroxy-25-homo-5β-cholane] | 20 to 50 (≈ 48.9 to 122 µM) | 100 (≈ 245 µM) | 450 (≈ 1100 µM) |  |  | 
2 | C[C@H](CCCO)[C@H]1CC[C@H]2[C@@H]3[C@H](O)C[C@@H]4C[C@H](O)CC[C@]4(C)[C@H]3C[C@H](O)[C@]12C [cholic, Z = OH, 3α,7α,12α,24-tetrahydroxy-5β-cholane] | 3800 (≈ 9630 µM) | 1650 (≈ 4180 µM) | 900 (≈ 2280 µM) |  |  | 
3 | C[C@H](CCCO)[C@H]1CC[C@H]2[C@@H]3CC[C@@H]4C[C@H](O)CC[C@]4(C)[C@H]3C[C@H](O)[C@]12C [deoxycholic, Z = OH, 3α,12α,24-trihydroxy-5β-cholane] | 10 (≈ 26.4 µM) | 10 (≈ 26.4 µM) | 730 (≈ 1930 µM) | outstanding | outstanding | 
4 | C[C@H](CCCCO)[C@H]1CC[C@H]2[C@@H]3[C@H](O)C[C@@H]4C[C@H](O)CC[C@]4(C)[C@H]3CC[C@]12C [chenodeoxycholic, Z = CH2 OH, 3α,7α,25-trihydroxy-25-homo-5β-cholane] | 270 (≈ 688 µM) |  | 110 (≈ 280 µM) |  |  | NONE
5 | C[C@H](CCCCO)[C@H]1CC[C@H]2[C@@H]3CC[C@@H]4C[C@H](O)CC[C@]4(C)[C@H]3C[C@H](O)[C@]12C [deoxycholic, Z = CH2 OH, 3α,12α,25-trihydroxy-25-homo-5β-cholane] | 5 (≈ 12.7 µM) | 30 (≈ 76.4 µM) | 150 (≈ 382 µM) | outstanding | outstanding | 
6 | C[C@H](CCCO)[C@H]1CC[C@H]2[C@@H]3[C@H](O)C[C@@H]4C[C@H](O)CC[C@]4(C)[C@H]3CC[C@]12C [chenodeoxycholic, Z = OH, 3α,7α,24-trihydroxy-5β-cholane] | 50 (≈ 132 µM) | 30 (≈ 79.2 µM) | 7000 (≈ 18500 µM) |  |  | 
